In patent publication US20110118277A1, “METHOD OF TREATING LIVER DISEASE” (priority 2003, published 2011):

Experiments:
[1] = system: Mouse hepatic oval cells (HOC); test: Oval cell growth in culture (WST-8 cell number assay); assay type: cell-based; conditions: 48 hours; for effect on NE-induced oval cell proliferation: prazosin 10 μM; for effect on NE-induced oval cell proliferation / effect on ISO-induced oval cell proliferation: pertussis toxin 100 ng/ml, PD98059 20 μM, SB202190 10 μM; for effect on ISO-induced oval cell proliferation: propranolol 10 μM
Method: Mouse hepatic oval cells (HOC) (from Dr. Bryon Petersen, University of Florida College of Medicine, Gainesville, Fla.) were maintained in culture with Iscove's modified DMEM according to the protocol described in PNAS 99: 8078-8083, 2002. To confirm that the cells retained their oval cell phenotype in our hands, expression of the embryonic isoform of pyruvate kinase (M2-PK) was evaluated by immunocytochemistry and immunoblot.
Sub-confluent HOC were harvested by gentle trypsinisation and resuspended in serum-free Iscove's modified Dulbecco's minimal essential medium (DMEM), at a density of 5,000 cells/100 μl/well in 96-well plates. […] After 44 hours, cell numbers were assessed by a further 4 h incubation with WST-8 tetrazolium reagent (Dojindo Molecular Technologies, Gaithersburg, Md.) as described in J Clin Invest 106: 501-509, 2000. In viable cells, the tetrazolium salt is metabolized to a colorimetric dye and cell number is proportional to the signal intensity at 450 nm Therefore, this assay reliably detects treatment-induced changes in cell number.
Oval cells were cultured in serum free medium (SF), serum or serum plus increasing concentrations of NE (a) or ISO (c). After 48 hours, the numbers of cells in culture were evaluated. […] Cell numbers were determined after 48 hours.

oval cells = test: Oval cell accumulation in Dbh-deficient mice fed MCD diet plus ethionine; assay type: in vivo, mouse; conditions: 4 weeks, ISO infused, FIG. 11
Text: Male Dbh* C57B 116 mice and their heterozygous littermates were generated and maintained as previously described in Cell 91: 583-592, 1997, and used at 30-40 weeks of age. Wild type C57B 116 mice were from Jackson Laboratory (Bar Harbor, Me.) Animals were allowed access to diets and water ad libitum. To induce oval cell expansion, mice were fed methionine choline deficient diets (ICN, Aurora, Ohio) supplemented with 0.15% Ethionine in the drinking water for 4 weeks. […]
Details of the staining procedures are as described in Am J Pathol 161: 521-530, 2002. […] Mouse monoclonal OV6 antibody and rat anti-cytokeratin 19 were detected using the DAKO Animal Research Kit, peroxidase (Dako, Denmark). The rabbit polyclonal antibody against 56 and 64 kiD human callus cytokeratins was detected by anti-rabbit Envision (Dako, Denmark) as described in J Pathol 199:191-200, 2003. […]
For each liver section, the number of oval cells in 5, randomly selected, non-overlapping, high power (×40 objective) fields was counted. […] Interlobular bile ducts were not considered progenitor cells and, thus not counted as such.
Dbh* and their control Dbh* littermates were fed methionine choline deficient (MCD) diets to induce oval cell expansion. […] Oval cell numbers were counted in 5 randomly selected fields/section from 4 mice/group. […]

| Molecule | effect on NE-induced oval cell proliferation [1] | effect on ISO-induced oval cell proliferation [1] | effect on proliferation of cultured oval cells ([1]; 5% serum) | other results |
| --- | --- | --- | --- | --- |
| COc1cccc(-c2cc(=O)c3ccccc3o2)c1N [PD98059] | significantly attenuated | significantly attenuated | – | – |
| NC[C@H](O)c1ccc(O)c(O)c1 [NE, norepinephrine] | – | – | significantly promote the proliferation of cultured oval cells | concentration of maximal proliferative effect ([1]; NE, 5% serum): 100 nM; concentration up to which the proliferative effect persists ([1]; NE, 5% serum): up to 100 μM |
| pertussis toxin | significantly attenuated | significantly attenuated | – | – |
| CC(C)NCC(O)c1ccc(O)c(O)c1 (centres unmarked) [ISO, isoprenaline] | – | – | promotes the proliferation of oval cells | concentration of peak proliferative activity (biphasic), first peak ([1]; ISO, 5% serum): 100 nM; concentration of peak proliferative activity (biphasic), second peak ([1]; ISO, 5% serum): 10 mM; hepatic oval cell accumulation in Dbh-deficient mice (oval cells): p<0.05 Dbh*+ISO versus Dbh* |
| CC(C)NCC(O)COc1cccc2ccccc12 (centres unmarked) [propranolol] | – | attenuated | – | – |
| Oc1ccc(-c2nc(-c3ccncc3)c(-c3ccc(F)cc3)[nH]2)cc1 [SB202190] | tends to reduce the effect of NE and ISO, but this is not statistically significant | tends to reduce the effect of NE and ISO, but this is not statistically significant | – | – |
